These results are taken from patent US4039660A, “Antibiotic Y-G19Z D3 and the production thereof” (Yamanouchi Pharmaceutical Co., Ltd., priority 1974, dated 1977).

What is called zone of inhibition is the extent of the growth-free halo in a diffusion test.

Experiment in all cases: Inhibition zone, disc on seeded Heart infusion agar
What all share (type): cell-based

One assay concerns Proteus morganii. The settings on record: Morganella morganii, disc dipped in 125 mcg/ml solution, read-out: diameter of the inhibition zone. The text has this:
(§1) Antimicrobial activities of Y-G19ZD3 in comparison with those of Cephalosporin C against various microorganisms are shown in Table 3. The figure indicates the diameter (mm) of the inhibition zone obtained with a disc dipped in 125 mcg/ml solution on Heart infusion agar seeded with each organism.

Assay [1] has as its system Proteus mirabilis IMF-OM9. To be noted: IMFOM9, read-out: diameter of the inhibition zone.
From the text: as §1

For a further assay, the system named is Klebsiella pneumoniae. The settings on record: disc dipped in 125 mcg/ml solution, read-out: diameter of the inhibition zone.
From the text: as §1

The subject of assay [2] is Basillus subtilis ATCC 6633. The settings on record: read-out: diameter of the inhibition zone.
From the text: as §1

Assay [3] has as its system Staphylococcus aureus 209 P. To be noted: disc dipped in 125 mcg/ml solution, read-out: diameter of the inhibition zone.
From the text: as §1

The next assay deals with Proteus vulgaris. The settings on record: disc dipped in 125 mcg/ml solution, read-out: diameter of the inhibition zone.
From the text: as §1

Another assay concerns Sarcina lutea ATCC 9941. The settings on record: Micrococcus luteus, ATCC9941, read-out: diameter of the inhibition zone.
From the text: as §1

Consider `CC(=O)OCC1=C(C(=O)O)N2C(=O)[C@@H](NC(=O)CCC[C@@H](N)C(=O)O)[C@H]2SC1` [Cephalosporin C], for which the zone of inhibition at 125 µg/mL amounted to 0 mm with Proteus morganii; 17.6 mm in assay [1]; 0 mm in the assay on Klebsiella pneumoniae; 13.5 mm in assay [2]; 0 mm in assay [3]; 0 mm in the assay with Proteus vulgaris. Moreover, in the assay with Sarcina lutea ATCC 9941, the zone of inhibition at 125 µg/mL was 0 mm.
